Biological target: CBP (Homo sapiens (Human), UniProt Q92793)
Test: HTRF biochemical assay for CBP activity (TR-FRET, bromodomain)
Assay type: binding
Conditions: geometric mean, 10-point 3-fold dilution 33 μM to 1.7 nM, read-out: BROMO IC50 TRF TB CBP (μM gmean)
Procedure, shortened: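 IC50 derives from a 4-parameter logistic fit of % inhibition, calculated from the 520/490 nm TR-FRET ratio against DMSO and no-enzyme controls. Final compound levels spanned 33 μM to 1.7 nM (10 points, 3-fold), with CBP and peptide ligand in Hepes pH 7.5/GSH/BGG/BSA/Triton buffer, incubated at room temperature for varying times.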

Sequence of CBP (Q92793 1085-1192): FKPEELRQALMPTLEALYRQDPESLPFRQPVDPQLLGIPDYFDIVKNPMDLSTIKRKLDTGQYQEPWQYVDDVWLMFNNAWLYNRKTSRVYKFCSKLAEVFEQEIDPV

| Structure (SMILES) | IC50 |
| --- | --- |
| COC(=O)N1CCc2ccc3c(nc([C@H]4CC[C@H](C(=O)O)CC4)n3[C@@H](C)CC3CCCCC3)c2C1 [Compound 200] | 0.01 to 0.1 µM |
| COC(=O)N1CCc2ccc3c(nc(C4CCCC4)n3C[C@H](CC(=O)O)c3ccccc3)c2C1 (single isomer, unassigned) [Compound 174] | 0.01 to 0.1 µM |
| COC(=O)N1CCc2c([C@H]3CCOC3)cc3c(nc(C4CCC(C(=O)O)CC4)n3[C@@H](C)Cc3ccccc3)c2C1 (some centres unmarked) [Compound 256] | 0.01 to 0.1 µM |
| COC(=O)N1CCc2c(Cl)cc3c(nc(C4CCCCC4)n3C[C@H](C(=O)O)c3ccccc3)c2C1 [Compound 223] | 0.01 to 0.1 µM |
| COC(=O)N1CCc2ccc3c(nc(-c4ccncc4)n3[C@H](C)Cc3ccccc3)c2C1 [Compound 326] | 0.1 to 1 µM |
| COC(=O)N1CCc2ccc3c(nc(C4CCCCC4)n3[C@H](Cc3ccccc3)C(=O)O)c2C1 [Compound 206] | 0.01 to 0.1 µM |
| COC(=O)N1CCc2ccc3c(nc(C4CCCCC4)n3[C@H](C)C[C@@H]3CCCC[C@H]3C(=O)O)c2C1 [Compound 251] | 0.01 to 0.1 µM |
| COC(=O)N1CCc2ccc3c(nc(-c4ccc(C(=O)O)c(OC)c4)n3[C@@H](C)Cc3ccccc3)c2C1 [Compound 208] | 0.01 to 0.1 µM |
| COC(=O)N1CCc2ccc3c(nc(C4CCCCC4)n3C[C@@H](C(=O)O)c3ccc(F)c(OC)c3)c2C1 [Compound 190] | 0.01 to 0.1 µM |
| COC(=O)N1CCc2ccc3c(nc([C@@H]4CCC[C@@H](C(=O)O)C4)n3CC[C@H]3CC[C@H](OC)CC3)c2C1 [Compound 156] | 0.001 to 0.01 µM |
| COC(=O)N1CCc2ccc3c(nc([C@H]4CC[C@H](C(=O)O)CC4)n3[C@H](C)Cc3cccnc3)c2C1 [Compound 111] | 0.001 to 0.01 µM |
| COC(=O)N1CCc2ccc3c(nc([C@H]4CC[C@H](C(=O)O)CC4)n3[C@@H](CO)Cc3ccc(F)c(F)c3)c2C1 [Compound 74] | 0.001 to 0.01 µM |
| COC(=O)N1CCc2ccc3c(nc(C4CCN(S(N)(=O)=O)CC4)n3[C@@H](C)Cc3ccccc3)c2C1 [Compound 107] | 0.001 to 0.01 µM |
| COC(=O)N1CCc2ccc3c(nc([C@H]4CC[C@@](C)(C(=O)O)CC4)n3[C@@H](C)Cc3ccccc3)c2C1 [Compound 49] | 0.001 to 0.01 µM |
| COC(=O)N1CCc2ccc3c(nc([C@H]4CC[C@H](C(=O)O)CC4)n3[C@H](C)C[C@H]3CCCCO3)c2C1 [Compound 179] | 0.01 to 0.1 µM |
| COC(=O)N1CCc2ccc3c(nc(C4CCCCC4)n3[C@@H](C)C[C@@H]3CCCC[C@@H]3C(=O)O)c2C1 [Compound 120] | 0.001 to 0.01 µM |
| COC(=O)N1CCc2ccc3c(nc([C@H]4CC[C@H](C(=O)O)CC4)n3[C@@H](C)C[C@H]3CC[C@@H](OC(F)(F)F)CC3)c2C1 [Compound 226] | 0.01 to 0.1 µM |
| COC(=O)N1CCc2ccc3c(nc([C@H]4CC[C@H](C(=O)O)CC4)n3[C@H](C)Cc3cccc(C)c3)c2C1 [Compound 334] | 0.1 to 1 µM |
| C[C@H](Cc1ccccc1)n1c2ccc3c(c2nc1[C@H]1CC[C@H](C(=O)O)CC1)CN(C(=O)C1CC1)CC3 [Compound 244] | 0.01 to 0.1 µM |
| COC(=O)N1CCc2ccc3c(nc(-c4cccnc4)n3[C@@H](C)Cc3ccccc3)c2C1 [Compound 127] | 0.001 to 0.01 µM |
| COC(=O)N1CCc2ccc3c(nc(Cc4cc(O)no4)n3[C@H](C)Cc3ccccc3)c2C1 [Compound 273] | 0.01 to 0.1 µM |

| Structure (SMILES) | IC50 |
| --- | --- |
| COC(=O)N1CCc2ccc3c(nc(C4CCCCC4)n3C[C@H]3CC[C@H](C(=O)O)CC3)c2C1 [Compound 83] | 0.001 to 0.01 µM |
| COC(=O)N1CCc2ccc3c(nc(C4CCCCC4)n3C[C@H](C(=O)O)c3cccc(F)c3F)c2C1 [Compound 104] | 0.001 to 0.01 µM |
| COC(=O)N1CCc2ccc3c(nc(C4CCCCC4)n3CC[C@@H]3CCCC[C@H]3C(=O)O)c2C1 [Compound 235] | 0.01 to 0.1 µM |
| COC(=O)N1CCc2ccc3c(nc([C@H]4CC[C@H](C(=O)O)CC4)n3[C@H](C)Cc3ccc(C)c(F)c3)c2C1 (single isomer, unassigned) [Compound 283] | 0.01 to 0.1 µM |
| COC(=O)N1CCc2ccc3c(nc([C@H]4CCC[C@H](C(=O)O)C4)n3[C@H](C)Cc3ccccc3Cl)c2C1 (single isomer, unassigned) [Compound 176] | 0.01 to 0.1 µM |
| COC(=O)N1Cc2c(ccc3c2nc([C@H]2CC[C@H](C(=O)O)CC2)n3[C@H](C)Cc2ccc(F)c(F)c2)C[C@@H]1C [Compound 129] | 0.001 to 0.01 µM |
| COC(=O)N1CCc2ccc3c(nc([C@H]4CC[C@H](C(=O)O)CC4)n3[C@@H](C)Cc3c(F)cccc3F)c2C1 [Compound 289] | 0.01 to 0.1 µM |
| COC(=O)N1CCc2ccc3c(nc([C@H]4CCC[C@H](C(=O)O)C4)n3[C@@H](C)Cc3ccccc3C)c2C1 (single isomer, unassigned) [Compound 18] | 0.001 to 0.01 µM |
| COC(=O)N1CCc2ccc3c(nc(C45CC(C(=O)O)(C4)C5)n3[C@@H](C)Cc3ccccc3)c2C1 [Compound 119] | 0.001 to 0.01 µM |
| COC(=O)N1CCc2ccc3c(nc([C@H]4CC[C@](C)(C(=O)O)CC4)n3[C@@H](C)Cc3ccccc3)c2C1 [Compound 224] | 0.01 to 0.1 µM |
| COC(=O)N1CCc2ccc3c(nc(C4CCC4)n3C[C@@H](C(=O)O)c3ccccc3)c2C1 [Compound 157] | 0.001 to 0.01 µM |
| COC(=O)N1CCc2ccc3c(nc([C@H]4CC[C@H](C(=O)O)CC4)n3[C@H](C)C[C@H]3CCCOC3)c2C1 [Compound 275] | 0.01 to 0.1 µM |
| COC(=O)N1CCc2ccc3c(nc(C4CCCCC4)n3[C@@H](C)Cc3cccc(C(=O)O)c3)c2C1 [Compound 102] | 0.001 to 0.01 µM |
| COC(=O)N1CCc2ccc3c(nc(C4CCCC(C(=O)O)C4)n3C[C@H](C)c3ccc(F)c(F)c3)c2C1 (stereo in doubt) [Compound 30, (1S,3S)-3[3-[(2R)-2-(3,4-difluorophenyl)propyl]-8-(methoxycarbonyl)-3H,6H,7H,8H,9H-imidazo[4,5-h]isoquinolin-2-yl]cyclohexane-1-carboxylic acid] | 0.001 to 0.01 µM |
| COC(=O)N1CCc2ccc3c(nc(N4CCC(C(=O)O)CC4)n3[C@H](C)Cc3ccc(F)c(F)c3)c2C1 (single isomer, unassigned) [Compound 307] | 0.1 to 1 µM |
| COC(=O)N1CCc2ccc3c(nc(C4CCCCC4)n3CC[C@@H]3CCC[C@H](C(=O)O)C3)c2C1 [Compound 131] | 0.001 to 0.01 µM |
| COC(=O)N1CCc2ccc3c(nc(N4CCC(C)(C(=O)O)CC4)n3[C@@H](C)Cc3ccccc3)c2C1 [Compound 75] | 0.001 to 0.01 µM |
| COC(=O)N1CCc2ccc3c(nc([C@@H]4CCC[C@@H](C(=O)O)C4)n3Cc3cccc(OC)n3)c2C1 [Compound 272] | 0.01 to 0.1 µM |
| COC(=O)N1CCc2ccc3c(nc(-c4ccc(C(=O)O)c(F)c4)n3[C@@H](C)Cc3ccccc3)c2C1 [Compound 133] | 0.001 to 0.01 µM |
| COC(=O)N1CCc2ccc3c(nc([C@H]4CC[C@H](C(=O)O)CC4)n3[C@@H]3CCc4ccccc4C3)c2C1 [Compound 335] | 0.1 to 1 µM |
| COC(=O)N1CCc2ccc3c(nc([C@H]4CC[C@H](C(=O)O)CC4)n3[C@@H](C)CC3CCOCC3)c2C1 [Compound 188] | 0.01 to 0.1 µM |

| Structure (SMILES) | IC50 |
| --- | --- |
| COC(=O)N1CCc2ccc3c(nc([C@H]4CC[C@@H](S(N)(=O)=O)CC4)n3[C@H](C)Cc3ccccc3)c2C1 [Compound 310] | 0.1 to 1 µM |
| COC(=O)N1CCc2ccc3c(nc(C4CCN(S(C)(=O)=O)CC4)n3[C@H](C)Cn3cc(Cl)cn3)c2C1 [Compound 110] | 0.001 to 0.01 µM |
| COC(=O)N1CCc2ccc3c(nc(C4CCN(S(C)(=O)=O)CC4)n3[C@H](C)Cc3ccccc3)c2C1 [Compound 319] | 0.1 to 1 µM |
| COC(=O)N1CCc2ccc3c(nc([C@H]4CC[C@H](C(=O)O)CC4)n3[C@@H](C)Cc3c(C)cccc3C)c2C1 [Compound 6] | 0.001 to 0.01 µM |
| COC(=O)N1CCc2ccc3c(nc([C@H]4CC[C@H](C(=O)O)CC4)n3[C@@H](C)C[C@@H]3CCCCO3)c2C1 [Compound 260] | 0.01 to 0.1 µM |
| COC(=O)N1CCc2ccc3c(nc([C@H]4CC[C@H](C(=O)O)CC4)n3[C@H](C)C[C@@H]3CCCCO3)c2C1 [Compound 302] | 0.1 to 1 µM |
| COC(=O)N1CCc2ccc3c(nc(C4CS(=O)(=O)C4)n3CCc3ccccc3)c2C1 [Compound 342] | 0.1 to 1 µM |
| COC(=O)N1CCc2c(Cl)cc3c(nc([C@H]4CC[C@H](C(=O)O)CC4)n3[C@@H](C)Cc3ccccc3)c2C1 [Compound 81] | 0.001 to 0.01 µM |
| COC(=O)N1CCc2ccc3c(nc(N4CCC(C(=O)O)CC4)n3[C@H](C)Cc3cc(F)cc(OC)c3)c2C1 (single isomer, unassigned) [Compound 16] | 0.001 to 0.01 µM |
| COC(=O)N1CCc2ccc3c(nc(C4CCCCC4)n3C[C@H](CC(=O)O)c3ccccc3)c2C1 [Compound 167] | 0.001 to 0.01 µM |
| COC(=O)N1CCc2ccc3c(nc(N4CCCCC4)n3[C@@H](C)Cc3cccc(-c4nnn[nH]4)c3)c2C1 [Compound 108] | 0.001 to 0.01 µM |
| COC(=O)N1CCc2ccc3c(nc([C@H]4CCC[C@H](C(=O)O)C4)n3C[C@H]3CC[C@@H](OC)CC3)c2C1 [Compound 245] | 0.01 to 0.1 µM |
| COC(=O)N1CCc2ccc3c(nc(C4CCCCC4)n3CCc3cccc(C(=O)O)c3)c2C1 [Compound 105] | 0.001 to 0.01 µM |
| COC(=O)N1CCc2ccc3c(nc(N4CCN(C(=O)C5COC5)CC4)n3[C@@H](C)Cc3ccccc3)c2C1 [Compound 337] | 0.1 to 1 µM |
| COC(=O)N1Cc2c(ccc3c2nc(C2CCCCC2)n3CCc2ccccc2)CC1C (centres unmarked) [Compound 238] | 0.01 to 0.1 µM |
| COC(=O)N1CCc2ccc3c(nc(C4CCCCC4)n3[C@H](CC(=O)O)c3ccccc3)c2C1 [Compound 180] | 0.01 to 0.1 µM |
| COC(=O)N1CCc2ccc3c(nc([C@H]4CC[C@H](C(=O)O)CC4)n3[C@@H](C)Cc3ccccc3C)c2C1 [Compound 7] | 0.001 to 0.01 µM |
| COC(=O)N1CCc2ccc3c(nc([C@H]4CC[C@H](C(=O)O)CC4)n3[C@H](C)Cc3c(C)cccc3C)c2C1 [Compound 318] | 0.1 to 1 µM |
| COC(=O)N1CCc2c(C#N)cc3c(nc([C@H]4CC[C@H](C(=O)O)CC4)n3[C@@H](C)Cc3ccccc3)c2C1 [Compound 52] | 0.001 to 0.01 µM |
| COC(=O)N1CCc2c(Cl)cc3c(nc([C@H]4CC[C@H](C(=O)O)CC4)n3[C@H](C)Cc3ccccc3)c2C1 [Compound 305] | 0.1 to 1 µM |

— patent publication US20250188079A1, “INHIBITING CYCLIC AMP-RESPONSIVE ELEMENT-BINDING PROTEIN (CREB)” (Forma Therapeutics, Inc., priority 2019, published 2025)
